The values that follow are results of earlier work, collected in patent US10017584B2, “6-deoxy-6-thioether-amino acid cyclodextrin derivative and preparation method thereof” (Hangzhou Adamerck Pharmlabs Inc., priority 2010, dated 2018).

Each structure is given as a SMILES string.

This data set concerns small mice. Conditions: according to reports; cited from earlier work.

As to `O=C(O)CCSC[C@H]1O[C@@H]2O[C@H]3[C@H](O)[C@@H](O)[C@@H](O[C@H]4[C@H](O)[C@@H](O)[C@@H](O[C@H]5[C@H](O)[C@@H](O)[C@@H](O[C@H]6[C@H](O)[C@@H](O)[C@@H](O[C@H]7[C@H](O)[C@@H](O)[C@@H](O[C@H]8[C@H](O)[C@@H](O)[C@@H](O[C@H]9[C@H](O)[C@@H](O)[C@@H](O[C@H]1[C@H](O)[C@H]2O)O[C@@H]9CSCCC(=O)O)O[C@@H]8CSCCC(=O)O)O[C@@H]7CSCCC(=O)O)O[C@@H]6CSCCC(=O)O)O[C@@H]5CSCCC(=O)O)O[C@@H]4CSCCC(=O)O)O[C@@H]3CSCCC(=O)O` [Bridion, sugammadex], the maximal safe dose was 2000 mg/kg.
